Conditions: glycine in water, room temperature (21 C)
Experimental: Supersaturated solutions of glycine in water, with concentrations ranging from 3.7 M to 3.9 M, were prepared by combining appropriate amounts of solid glycine with 2 g of water in 1.3-cm diameter Pyrex test tubes with screw-on caps. Great care was taken to exclude dust from samples. Supersaturation was achieved by heating the samples in an ultrasonic bath at 50 C, and holding them at that temperature until the glycine was completely dissolved.

NCC(=O)O [glycine]
csat, concentration of a saturated solution: 2.69 M

— patent US6759521B2, “Polarization switching to control crystal form” (priority 2000, dated 2004)
